Results as given in patent US20050113315A1, “Glucopyranosyloxybenzylbenzene derivatives, medicinal compositions containing the same and intermediates in the production thereof” (KISSEI PHARMACEUTICAL CO., LTD., priority 2000, published 2005).

Key:
human SGLT2 = target: T1, human SGLT2 (Homo sapiens, UniProt P31639, I433V); test: Assay for inhibitory effect on human SGLT2 activity (uptake of methyl-α-D-glucopyranoside in COS-7 cells transiently expressing human SGLT2); assay type: cell-based; conditions: uptake of methyl-α-D-(U-14C)-glucopyranoside, 37° C., 2 hours
T1 construct: expressed in transfected cells; host or cells: COS-7 cells (RIKEN CELL BANK RCB0539), transient electroporation with KL29
T1 sequence (P31639 1-672 I433V): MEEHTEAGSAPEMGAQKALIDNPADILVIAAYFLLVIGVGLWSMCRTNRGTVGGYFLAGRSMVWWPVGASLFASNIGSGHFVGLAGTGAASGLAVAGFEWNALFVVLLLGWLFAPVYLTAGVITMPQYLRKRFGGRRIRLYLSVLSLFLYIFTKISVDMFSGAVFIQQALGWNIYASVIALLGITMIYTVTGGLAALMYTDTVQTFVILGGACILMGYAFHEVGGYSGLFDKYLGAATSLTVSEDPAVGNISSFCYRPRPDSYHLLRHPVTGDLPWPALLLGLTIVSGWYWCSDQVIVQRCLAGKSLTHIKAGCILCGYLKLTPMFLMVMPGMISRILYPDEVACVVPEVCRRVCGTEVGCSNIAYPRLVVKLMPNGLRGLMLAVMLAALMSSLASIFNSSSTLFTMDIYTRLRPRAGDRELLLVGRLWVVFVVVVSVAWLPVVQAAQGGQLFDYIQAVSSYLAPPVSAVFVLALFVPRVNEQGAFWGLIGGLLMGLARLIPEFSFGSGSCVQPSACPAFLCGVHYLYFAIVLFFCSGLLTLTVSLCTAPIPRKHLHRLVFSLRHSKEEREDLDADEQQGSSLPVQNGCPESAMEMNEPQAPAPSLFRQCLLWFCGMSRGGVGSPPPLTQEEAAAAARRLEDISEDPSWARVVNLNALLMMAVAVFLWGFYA
Method: Assay for Inhibitory Effect on Human SGLT2 Activity
1) Construction of the Plasmid Vector Expressing Human SGLT2
Preparation of the cDNA library for PCR amplification was performed by reverse transcription of a total RNA deprived from human kidney (Ori gene) with oligo dT as the primer, using […] Preamplification System (Gibco-BRL: LIFE TECHNOLOGIES). The DNA fragment coding for human SGLT2 was amplified by the PCR reaction, in which the human kidney cDNA library described above was used as the template and the following oligo nucleotides 0702F and 0712R, presented as Sequence Number 1 and 2 respectively, were used as the primers. The amplified DNA fragment was ligated into pCR-Blunt (Invitrogen), a vector for cloning, according to standard method of the kit. The Escherichia coli HB101 (Toyobo) was transformed according to usual method and then selection of the transformants was performed on the LB agar medium containing 50 μg/mL of kanamycin. After the plasmid DNA was extracted and purified from the one of the transformants, amplifying of the DNA fragment coding for human SGLT2 was performed by the PCR reaction, in which the following oligo nucleotides 0714F and 0715R, presented as Sequence Number 3 and 4 respectively, were used as the primers. The amplified DNA fragment was digested with restriction enzymes, Xho I and Hind III, and then purified with Wizard Purification System (Promega). This purified DNA fragment was inserted at the corresponding restriction sites of pcDNA3.1 (−) Myc/His-B (Invitrogen), a vector for expressing of fusion protein. The Escherichia coli HB101 was transformed according to usual method and then selection of the transformant was performed on the LB agar medium containing 100 μg/mL of ampicillin. After the plasmid DNA was extracted and purified from this transformant, the base sequence of the DNA fragment inserted at the multi-cloning sites of pcDNA3.1 (−) Myc/His-B was analyzed. […] Sequentially, a clone in which valine is substituted for the isoleucine-433 was obtained. This plasmid vector expressing human SGLT2 in which the peptide presented as Sequence Number 5 is fused to the carboxyl terminal alanine residue was designated KL29.
2) Preparation of the Cells Expressing Transiently Human SGLT2
KL29, the plasmid coding human SGLT2, was transfected into COS-7 cells (RIKEN CELL BANK RCB0539) by electroporation. Electroporation was performed with GENE PULSER II (Bio-Rad Laboratories) under the condition: 0.290 kV, 975 μF, 2×10^6 cells of COS-7 cell and 20 μg of KL29 in 500 μL of OPTI-MEM I medium (Gibco-BRL: LIFE TECHNOLOGIES) in the 0.4 cm type cuvette. After the gene transfer, the cells were harvested by centrifugation and resuspended with OPTI-MEM I medium (1 mL/cuvette). To each well in 96-wells plate, 125 μL of this cell suspension was added. After overnight culture at 37° C. under 5% CO2, 125 μL of DMEM medium which is containing 10% of fetal bovine serum (Sanko Jyunyaku), 100 units/mL sodium penicillin G (Gibco-BRL: LIFE TECHNOLOGIES), 100 μg/mL streptomycin sulfate (Gibco-BRL: LIFE TECHNOLOGIES) was added to each well. After a culture until the following day, these cells were used for the measurement of the inhibitory activity against the uptake of methyl-α-D-glucopyranoside.
3) Measurement of the Inhibitory Activity Against the Uptake of methyl-α-D-glucopyranoside […]

SD rats = test: Assay for the facilitatory effect on urinary glucose excretion; assay type: in vivo, rat; conditions: male SD rats, oral glucose 2 g/kg, urine collected 24 hours
Method: Assay for the Facilitatory Effect on Urinary Glucose Excretion
As experimental animals, overnight fasted SD rats (Japan SLC. Inc., male, 7 weeks of age, 180-220 g) were used. Ten mg of a test compound was suspended or dissolved in 300 μL of ethanol and dissolved by adding 1.2 mL of polyethylene glycol 400 and 1.5 mL of saline to prepare a 3.3 mg/mL solution. A portion of this solution was diluted with a mixture (saline:polyethylene glycol 400:ethanol=5:4:1) to prepare 3.3, 0.33 and 0.033 mg/mL solution. After body weights of the rats were measured, the solution of test compound was intravenously injected to the tail vein at a dose of 3 mL/kg (10, 1, 0.1 mg/kg). For control, only a mixture (saline:polyethylene glycol 400:ethanol=5:4:1) was intravenously injected to the tail vein at a dose of 3 mL/kg. Immediately after intravenous injection to the tail vein, 200 g/L of aqueous glucose solution was orally administered to the rats at a dose of 10 mL/kg (2 g/kg). The intravenous injection to the tail vein was performed with 26 G injection needle and 1 mL syringe. The oral administration was performed with gastric tube for rat and 2.5 mL syringe. The head count in each group was 3. Collection of urine was performed in metabolic cage after the administration of glucose was finished. The sampling time for collection of urine was 24 hours after the administration of glucose. After the collection of urine was finished, the urine volume was recorded and the urinary glucose concentration was measured. The glucose concentration was measured with a kit for laboratory test: Glucose B-Test WAKO (Wako Pure Chemical Industries, Ltd.). The amount of urinary glucose excretion during 24 hours per 200 g of body weight was calculated from the urine volume, urinary glucose concentration and body weight.

ICR mice = test: Acute toxicity test; assay type: in vivo; conditions: male ICR mice, 300 mg/kg subcutaneous, 5 animals in each group, observation for 24 hours
Method: A mixture (saline:polyethylene glycol 400:ethanol=5:4:1) was added to a test compound to prepare 30 mg/mL solution. As experimental animals, 5 week old male ICR mice (CLEA JAPAN, INC. 29-35 g, 5 animals in each group), which were fasted for 4 hours, were used. The above solution was subcutaneously administered at a dose of 10 mL/kg (300 mg/kg) to the above experimental animals and then observation for 24 hours was performed.

Row | Structure (SMILES) | IC50 (human SGLT2) | Amount of Urinary Glucose Excretion (SD rats; 0.1 mg/kg intravenous) | Amount of Urinary Glucose Excretion (SD rats; 1 mg/kg intravenous) | Amount of Urinary Glucose Excretion (SD rats; 10 mg/kg intravenous) | Death number (ICR mice)
1 | CCc1ccc(Cc2ccc(N)cc2O[C@@H]2O[C@H](CO)[C@@H](O)[C@H](O)[C@H]2O)cc1 [Example 29, 5-Amino-2-(4-ethylbenzyl)phenyl β-D-glucopyranoside] | 10 nM |  |  |  | 
2 | OC/C=C/c1ccc(Cc2ccccc2O[C@@H]2O[C@H](CO)[C@@H](O)[C@H](O)[C@H]2O)cc1 [Example 19, (E)-2-[4-(3-hydroxy-1-prop-1-ene-1-yl)benzyl]phenyl β-D-glucopyranoside] | 120 nM |  |  |  | 
3 | Cc1cc(C)c(Cc2ccc(CCCO)cc2)c(O[C@@H]2O[C@H](CO)[C@@H](O)[C@H](O)[C@H]2O)c1 [Example 30, 2-[4-(3-Hydroxypropyl)benzyl]-3,5-dimethylphenyl β-D-glucopyranoside] | 30 nM |  |  |  | 
4 | COc1ccc(Cc2c(C)cc(C)cc2O[C@@H]2O[C@H](CO)[C@@H](O)[C@H](O)[C@H]2O)cc1 [Example 37, 2-(4-Methoxybenzyl)-3,5-dimethylphenyl β-D-glucopyranoside] | 290 nM | 15 mg/24 hours/200 g body weight | 125 mg/24 hours/200 g body weight | 288 mg/24 hours/200 g body weight | 0/5
5 | Cc1cc(C)c(Cc2ccc(CCO)cc2)c(O[C@@H]2O[C@H](CO)[C@@H](O)[C@H](O)[C@H]2O)c1 [Example 31, 2-[4-(2-Hydroxyethyl)benzyl]-3,5-dimethylphenyl β-D-glucopyranoside] | 59 nM |  |  |  | 
